The values that follow are results of earlier work, collected in patent US12595109B2, “Device to release water and antimicrobial vapor into an enclosed or partially enclosed space” (Arkema Inc., priority 2020, dated 2026).

Like-named read-outs stand apart in the source and are kept apart here.

In data set [1] the test system is Clostridium sporogenes (Spores).
The subject of data set [2] is Geobacillus stearothermophilus. To be noted: biological indicator, 2 mg/L gaseous H2O2.
The subject of data set [3] is Bacillus subtilis (Spores).
[4] abbreviates: Liquid solution of H2O2, c(H2O2) = 370 mg l^−1, T = 24-25° C.
The mark [5] stands for this setting: VPHP, c(H2O2) = 1-2 mg l^−1, T = 24-25° C.

Turning to `OO` [hydrogen peroxide], the D-value in the data set with Bacillus (Spores) (setting [4]) is 1.5 min; with Bacillus (Spores) (setting [5]), 1 to 2 min; in data set [1] (setting [4]), 0.8 min; in data set [1] (setting [5]) it was 0.5 to 1 min; in data set [2] it was 0.8 min; in data set [3] (setting [4]) it was 2.0 to 7.3 min. The D-value in data set [3] (setting [5]) was 0.5 to 1 min. For the same compound, under “ACGIH, 5 times the TLV-TWA”, the maximum exposure result was “no more than 5 ppm”. The TLV (ACGIH, 8 hour TWA) is reported as 1 ppm. Besides, the STEL (United Kingdom and some other countries) is recorded as 2 ppm. Besides, the “Short Term Exposures (STELs)” value (Washington and Hawaii) was 3 ppm.
